What was measured:
[1] = biological target: T1, CDK1/CyclinB (Homo sapiens, UniProt P06493); assay: Activated CDK1/CyclinB kinase inhibitory activity assay; assay type: biochemical; conditions: histone H1 substrate, γ33P-ATP filter assay; read-out: IC50 against CDK1 activity
T1 construct: purchased Upstate Discovery
Description: (§1) Activated CDK2/CyclinA (Brown et al, Nat. Cell Biol., 1, pp 438-443, 1999; Lowe, E. D., et al Biochemistry, 41, pp 15625-15634, 2002) is diluted to 125 pM in 2.5× strength assay buffer (50 mM MOPS pH 7.2, 62.5 mM β-glycerophosphate, 12.5 mM EDTA, 37.5 mM MgCl2, […], 2.5 mM DTT, 2.5 mM sodium orthovanadate, 0.25 mg/ml bovine serum albumin), and 10 μl mixed with 10 μl of histone substrate mix (60 μl bovine histone H1 (Upstate Biotechnology, 5 mg/ml), 940 μl H2O, 35 μCi γ^33P-ATP) and added to 96 well plates along with 5 μl of various dilutions of the test compound in DMSO (up to 2.5%). The reaction is allowed to proceed for 2 to 4 hours before being stopped with an excess of ortho-phosphoric acid (5 μl at 2%).
(§2) γ^33P-ATP which remains unincorporated into the histone H1 is separated from phosphorylated histone H1 on a Millipore MAPH filter plate. The wells of the MAPH plate are wetted with 0.5% orthophosphoric acid, and then the results of the reaction are filtered with a Millipore vacuum filtration unit through the wells. Following filtration, the residue is washed twice with 200 μl of 0.5% orthophosphoric acid. Once the filters have dried, 20 μl of Microscint 20 scintillant is added, and then counted on a Packard Topcount for 30 seconds.
(§3) The % inhibition of the CDK2 activity is calculated and plotted in order to determine the concentration of test compound required to inhibit 50% of the CDK2 activity (IC50).
CDK1/CyclinB assay is identical to the CDK2/CyclinA above except that CDK1/CyclinB (Upstate Discovery) is used and the enzyme is diluted to 6.25 nM.

[2] = biological target: Activated CDK2/CyclinA (Homo sapiens, UniProt P24941); assay: Activated CDK2/CyclinA kinase inhibitory activity assay; assay type: biochemical; conditions: histone H1 substrate, γ33P-ATP filter assay; read-out: IC50 against CDK2 activity
Description: Compounds of the invention were tested for kinase inhibitory activity using the following protocol.
as §1, §2, §3

T1 sequence (P06493 whole entry): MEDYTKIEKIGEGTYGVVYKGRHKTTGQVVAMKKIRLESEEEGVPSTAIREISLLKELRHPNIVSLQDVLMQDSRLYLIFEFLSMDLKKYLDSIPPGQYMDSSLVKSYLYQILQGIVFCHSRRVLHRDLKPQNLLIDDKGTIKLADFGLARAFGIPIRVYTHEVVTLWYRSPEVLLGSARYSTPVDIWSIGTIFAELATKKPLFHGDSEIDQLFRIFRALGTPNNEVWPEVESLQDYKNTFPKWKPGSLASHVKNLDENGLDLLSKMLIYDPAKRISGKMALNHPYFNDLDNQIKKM
T1 sequence (P14635 whole entry partner): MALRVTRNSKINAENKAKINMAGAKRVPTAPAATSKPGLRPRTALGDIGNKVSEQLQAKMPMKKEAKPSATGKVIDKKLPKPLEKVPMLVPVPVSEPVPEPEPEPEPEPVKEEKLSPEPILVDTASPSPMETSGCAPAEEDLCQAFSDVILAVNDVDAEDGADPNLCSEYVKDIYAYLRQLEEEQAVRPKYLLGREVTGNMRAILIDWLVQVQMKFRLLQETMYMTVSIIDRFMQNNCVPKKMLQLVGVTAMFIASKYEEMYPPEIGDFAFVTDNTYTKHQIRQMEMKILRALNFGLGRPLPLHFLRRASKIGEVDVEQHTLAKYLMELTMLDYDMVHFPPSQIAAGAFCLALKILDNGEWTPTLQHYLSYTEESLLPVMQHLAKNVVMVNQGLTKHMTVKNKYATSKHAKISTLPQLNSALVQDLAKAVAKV

IC50 [1] | IC50 [2] | Structure (SMILES)
< 1 µM | < 1 µM | O=C(Nc1c[nH]nc1-c1nc2c([nH]1)CCNC2)c1c(F)cccc1F [Example 4, 2,6-difluoro-N-[3-(4,5,6,7-tetrahydro-1H-imidazol[4,5-c]pyridin-2-yl)-1H-pyrazol-4-yl]-benzamide]
< 1 µM | < 1 µM | O=C(Nc1c[nH]nc1-c1nc2c([nH]1)CCN(CCF)C2)c1c(F)cccc1F [Example 7, 2,6-difluoro-N-{3-[5-(2-fluoro-ethyl)-4,5,6,7-tetrahydro-1H-imidazol[4,5-c]pyridine-2-yl]-1H-pyrazol-4-yl}-benzamide]
< 1 µM | < 1 µM | O=C(Nc1c[nH]nc1-c1nc2cc[nH]c(=O)c2[nH]1)c1c(F)cccc1F [Example 1, 2,6-difluoro-N-[3-(4-oxo-4,5-dihydro-3H-imidazo[4,5-c]pyridin-2-yl)-1H-pyrazol-4-yl]-benzamide]
< 1 µM | < 1 µM | CCN1CCc2[nH]c(-c3n[nH]cc3NC(=O)c3c(F)cccc3F)nc2C1 [Example 6, N-[3-(5-ethyl-4,5,6,7-tetrahydro-1H-imidazo[4,5-c]pyridine-2-yl)-1H-pyrazol-4-yl]-2,6-difluoro-benzamide]

Reference: patent publication US20080004270A1, “3,4-Disubstituted Pyrazoles as Cyclin Dependent Kinases (Cdk) or Aurora Kinase or Glycogen Synthase 3 (Gsk-3) Inhibitors” (ASTEX THERAPEUTICS LIMITED, priority 2004, published 2008)
